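Compound exposure: 48 hours, 5 concentrations, 96-well plates. GI50 marks 50% less growth. At the TGI there is no net growth.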 Some results are limits rather than exact numbers.

Test systems include RPMI-8226 leukemia; UO-31 renal; HCT-116 colon; SF-268 CNS; NCI-H226 lung; RXF 393 renal; MDA-MB-231 breast; LOX IMVI melanoma; EKVX NSCLC; SN12C renal; UACC-62 melanoma; 786-0 renal; UACC-257 melanoma; SK-OV-3 ovarian; SK-MEL-5 melanoma; SNB-75 CNS; SK-MEL-2 melanoma.
Assay in all cases: inhibition of tumour cell growth, NCI panel, 48 h

Regarding `CN1C2CCC1CC(OC(c1ccccc1)c1ccccc1)C2` (stereo not given), the TGI was determined as 33.4 µM in the assay on RPMI-8226 leukemia; 40.1 µM with UO-31 renal; 25.1 µM in the assay on HCT-116 colon; 41.5 µM with SF-268 CNS; 72.6 µM in the assay on NCI-H226 lung; 42.3 µM in the assay on RXF 393 renal. The TGI with MDA-MB-231 breast was 32.7 µM; in the assay on LOX IMVI melanoma it was 29.4 µM; in the assay with EKVX NSCLC, 91.2 µM; in the assay on SN12C renal it was above 100 µM; in the assay on UACC-62 melanoma it was 30.4 µM; in the assay with 786-0 renal, 27 µM. The TGI in the assay on UACC-257 melanoma was 26.6 µM; in the assay with SK-OV-3 ovarian, 47.1 µM; in the assay with SK-MEL-5 melanoma it was 29.1 µM; in the assay with SNB-75 CNS it was 72.8 µM; in the assay on SK-MEL-2 melanoma, 32.1 µM.
Turning to `CC1=C(/C=C/C(C)=C/C=C/C(C)=C/C(=O)OCC2OC(n3cc(F)c(=O)[nH]c3=O)CC2OC(=O)/C=C(C)/C=C/C=C(C)/C=C/C2=C(C)CCCC2(C)C)C(C)(C)CCC1` (stereo not given), the TGI is 42.6 µM in the assay on RPMI-8226 leukemia; above 26.3 µM with UO-31 renal; 27.1 µM in the assay with HCT-116 colon; above 85.3 µM in the assay with SF-268 CNS; above 69.3 µM in the assay on NCI-H226 lung; above 100 µM in the assay on RXF 393 renal. Further, the TGI was above 86.8 µM with MDA-MB-231 breast; 25.8 µM in the assay with LOX IMVI melanoma; above 100 µM in the assay with EKVX NSCLC; above 31.6 µM in the assay on SN12C renal; above 23.8 µM in the assay on UACC-62 melanoma; above 46.1 µM with 786-0 renal. Moreover, the TGI with UACC-257 melanoma is above 92.1 µM; with SK-OV-3 ovarian, above 100 µM; in the assay with SK-MEL-5 melanoma it was 19.8 µM; in the assay with SNB-75 CNS it was above 100 µM; in the assay on SK-MEL-2 melanoma, above 100 µM.
As for `Cc1ccc(S(=O)ON2CCC(C(=O)O)(c3ccccc3)CC2)cc1` (stereo not given), the TGI in the assay with RPMI-8226 leukemia, in the assay on UO-31 renal, in the assay with HCT-116 colon, in the assay with SF-268 CNS, in the assay on NCI-H226 lung and in the assay on RXF 393 renal was above 100 µM throughout. For the same molecule, the TGI with MDA-MB-231 breast is above 100 µM; in the assay on LOX IMVI melanoma, above 100 µM; in the assay with EKVX NSCLC, above 100 µM; with SN12C renal, above 100 µM; with UACC-62 melanoma, above 100 µM; with 786-0 renal it was above 32.2 µM. In addition, the TGI with UACC-257 melanoma, with SK-OV-3 ovarian, in the assay on SK-MEL-5 melanoma, in the assay with SNB-75 CNS and in the assay with SK-MEL-2 melanoma was above 100 µM in each case. In the assay on SK-MEL-2 melanoma, the GI50 was above 100 µM.
In the case of `O=c1c2ccccc2nc2n1NC(c1c(Cl)cccc1Cl)N2c1cccc(Cl)c1` (stereo not given), the TGI was above 100 µM with RPMI-8226 leukemia; 7.39 µM in the assay on UO-31 renal; 11.6 µM with HCT-116 colon; above 100 µM with SF-268 CNS; 6.36 µM in the assay on NCI-H226 lung; 18.5 µM in the assay with RXF 393 renal. The TGI with MDA-MB-231 breast was 9.94 µM; in the assay with LOX IMVI melanoma, above 100 µM; with EKVX NSCLC, above 100 µM; in the assay on SN12C renal it was 21.9 µM; with UACC-62 melanoma, 22.9 µM; in the assay with 786-0 renal, 4.24 µM. The TGI is above 100 µM in the assay on UACC-257 melanoma; 6.81 µM with SK-OV-3 ovarian; 65.5 µM with SK-MEL-5 melanoma; 9.92 µM with SNB-75 CNS; above 100 µM in the assay on SK-MEL-2 melanoma.
In the case of `CC(=O)N=C(N=Nc1c(O)[nH]c2ccc(C)cc12)NC(C)=O`, the TGI in the assay with RPMI-8226 leukemia, with UO-31 renal, in the assay on HCT-116 colon, with SF-268 CNS, in the assay on NCI-H226 lung and in the assay with RXF 393 renal was above 100 µM throughout. Also, the TGI with MDA-MB-231 breast, in the assay with LOX IMVI melanoma, with EKVX NSCLC, in the assay on SN12C renal, in the assay with UACC-62 melanoma and in the assay with 786-0 renal was above 100 µM throughout. For the same molecule, the TGI in the assay on UACC-257 melanoma, in the assay on SK-OV-3 ovarian, with SK-MEL-5 melanoma, in the assay with SNB-75 CNS and in the assay on SK-MEL-2 melanoma was above 100 µM each time.
Consider `Clc1ccc(N=C/C=C/Nc2ccc(Cl)cn2)nc1`, for which the TGI was 37.1 µM with RPMI-8226 leukemia; 29.2 µM in the assay on UO-31 renal; 25 µM with HCT-116 colon; 30.6 µM in the assay with SF-268 CNS; 31.2 µM with NCI-H226 lung; 34.9 µM with RXF 393 renal. Also, the TGI in the assay on MDA-MB-231 breast was 16.2 µM; in the assay with LOX IMVI melanoma, 19.8 µM; with EKVX NSCLC, 13.9 µM; in the assay with SN12C renal, 28.6 µM; in the assay on UACC-62 melanoma, 26.2 µM; with 786-0 renal it was 18.3 µM. The TGI amounted to 32.3 µM in the assay with UACC-257 melanoma; 36.6 µM with SK-OV-3 ovarian; 27.5 µM with SK-MEL-5 melanoma; 25.7 µM with SNB-75 CNS; 29.2 µM with SK-MEL-2 melanoma.
As for `CNC(=S)/C(=N\Nc1nc[nH]c1C(N)=O)C(N)=S`, the TGI in the assay with RPMI-8226 leukemia was 55.7 µM; in the assay with UO-31 renal it was 18.3 µM; in the assay with HCT-116 colon, above 100 µM; with SF-268 CNS, above 54.2 µM; with NCI-H226 lung, above 33.9 µM; in the assay on RXF 393 renal, above 100 µM. The TGI with MDA-MB-231 breast is above 24 µM; in the assay with LOX IMVI melanoma it was above 37.9 µM; in the assay with EKVX NSCLC, above 100 µM; in the assay on SN12C renal, 18.9 µM; with UACC-62 melanoma, above 92.8 µM; in the assay with 786-0 renal it was above 100 µM. Moreover, the TGI in the assay on UACC-257 melanoma is above 100 µM; in the assay on SK-OV-3 ovarian, above 31.6 µM; in the assay with SK-MEL-5 melanoma, 81.3 µM; with SNB-75 CNS, 71.9 µM; in the assay with SK-MEL-2 melanoma it was above 82.3 µM.

The values are drawn from PubChem BioAssay (NCI).
